The numbers were not newly measured in patent publication US20210069098A1, “RIBAVIRIN […] COMPOSITION FOR TREATING VIRAL DISEASES” (MT RESEARCH, LLC, priority 2009, published 2021), which cites them from elsewhere.

Read-outs that look alike come from different tables or passages of the source.

For data set [1] the following is noted: nebulized neat perflubron.
For data set [2] the following is noted: PLV.

Regarding `CC(=O)N[C@@H](CS)C(=O)O` [N-acetylcysteine (NAC), N-acetylcysteine], the survival result in the data set on Influenza (in vivo) is on record as “improve survival”.

As to `FC(F)(F)C(F)(F)C(F)(F)C(F)(F)C(F)(F)C(F)(F)C(F)(F)C(F)(F)Br` [perflubron], in data set [1], the gas exchange result is given as “efficacy for gas exchange”. The “reduction in ventilator days or mortality” value in data set [2] (low dose 10 mL/kg or high dose 20 mL/kg) was “failed to demonstrate a reduction in ventilator days or mortality”. Also, in data set [2] (low dose or high dose, hypotension, hypoxemia and pneumothorax), the complications entry is “more complications”.

For the compound “superoxide dismutase [superoxide dismutase (SOD)]”, the survival result in the data set on Influenza ([…]) was “improve survival”.
